Assay results published in patent US10590100B2, “Benzofuran derivatives for the treatment of CNS and other disorders” (WARNER BABCOCK INSTITUTE FOR GREEN CHEMISTRY, priority 2015, dated 2020).

Tests used:
Assay type in all cases: biochemical
[1] = molecular target: T1, amylin aggregates (Homo sapiens, UniProt P10997); assay: Bis-ANS fluorescence assay of disaggregation of amylin aggregates; settings: 15 μM amylin; for EC50: bis-ANS 15 μM, Tris-buffered saline, compound added after 24 hr aggregation
T1 construct: Amylin (15 μM) in TrisHCl—NaCl buffer was allowed to aggregate for 24 hr
T1 sequence (P10997 34-70 limits assumed): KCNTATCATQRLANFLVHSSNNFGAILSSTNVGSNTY
Procedure: Amylin (15 μM) in TrisHCl—NaCl buffer was allowed to aggregate for 24 hr, while monitoring the fluorescence of bis-ANS (15 μM) as a marker of amylin aggregation. Typically, the fluorescence increases during the aggregation period. After the aggregation period, varying concentrations (60, 15, 3.75, 0.938, 0.234, or 0 μM final concentration) of a test compound were then added to the sample, and the fluorescence intensity monitored until it plateaus, typically an additional 20-24 hr. Controls were simultaneously run in which the test compound was added to a sample that contained Bis-ANS but no amylin so as to determine any interfering intrinsic fluorescence of the test compound itself (see Table 1).
A series of assays was also carried out so as to determine the EC50 for EGCG, by addition of 60, 15, 3.75, 0.938, 0.234, or 0 μM EGCG after 24 hours, similarly to the methods used to assay the test compounds.

[2] = molecular target: T2, zinc-independent Aβ42 aggregates (Homo sapiens, UniProt P05067); assay: Bis-ANS fluorescence assay of disaggregation of zinc-independent Aβ42 aggregates; settings: for EC50: Aβ42 15 μM, bis-ANS 15 μM, Tris-buffered saline, without Zn2+; for Change in bis-ANS fluorescence after addition of compound to zinc-independent Aβ42 aggregates: 15 μM Aβ42, no Zn2+, compound at 60.0 to 0.234 μM (FIG. 2)
T2 construct: 15 μM Aβ42 peptide in TrisHCl—NaCl buffer
T2 sequence (P05067 672-713 limits assumed): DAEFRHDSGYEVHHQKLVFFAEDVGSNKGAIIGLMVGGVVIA
Procedure: Bis-ANS was used as a fluorescent marker for Aβ42 aggregation and disaggregation so as to determine the efficacy, EC50, of each test compound in the presence or absence of zinc(II). Baseline fluorescence was established by monitoring the fluorescence of 15 μM bis-ANS in a TrisHCl-NaCl buffer (TrisHCl-NaCl buffer: 0.50 mM TrisHCl, 1.50 mM NaCl, pH 7.4) that contains 15 μM Aβ42. After 5 minutes, Zn(II) (as zinc(II) sulfate, 15 μM final concentration) was added to the Aβ42 solution, and the fluorescence intensity monitored for 24-40 minutes. Fluorescence increases following the addition of Zn(II) during the aggregation period. After the aggregation period, varying concentrations (60, 15, 3.75, 0.938, 0.234, or 0 μM final concentration) of a test compound were added, and the fluorescence intensity again monitored until it plateaus, typically 20-24 min. […] Fluorescence intensities were determined at 390 nm excitation wavelength/490 nm emission wavelength with a 475 nm cutoff. […] The responses I0-If, were calculated as the difference in the final fluorescent intensity If, c at the end of the assay for each concentration as compared to the final intensity I0 determined for the sample with no added derivative. The responses were normalized to the maximum response […] which is the final fluorescent intensity of the sample containing 60 μM test compound, Normalized response=(I0-If)/(I0-[…]). The fluorescent intensities were then fit to a 4-parameter sigmoidal logistic function to determine EC50. A representative example of disaggregation of spontaneously formed, zinc-independent Aβ42 aggregates by a test compound, BC-147, is given in FIG. 2. In the absence of zinc(II), soluble Aβ42 undergoes zinc-independent aggregation more slowly than aggregation in the presence of zinc(II). This spontaneous, zinc-independent aggregation of Aβ42 is detected by an increase in bis-ANS fluorescence. […] FIG. 2 depicts the disaggregation by BC-147 of the spontaneously formed, zinc-independent Aβ42 aggregates.

[3] = molecular target: T3, zinc-induced Aβ42 aggregates (Homo sapiens, UniProt P05067); assay: Bis-ANS fluorescence assay of disaggregation of zinc-induced Aβ42 aggregates; settings: for EC50: Aβ42 15 μM, bis-ANS 15 μM, Tris-buffered saline, with 15 μM Zn2+
T3 construct: 15 μM Aβ42 peptide in TrisHCl—NaCl buffer
T3 sequence (P05067 672-713 limits assumed): as above
Procedure: Bis-ANS was used as a fluorescent marker for Aβ42 aggregation and disaggregation so as to determine the efficacy, EC50, of each test compound in the presence or absence of zinc(II). Baseline fluorescence was established by monitoring the fluorescence of 15 μM bis-ANS in a TrisHCl-NaCl buffer (TrisHCl-NaCl buffer: 0.50 mM TrisHCl, 1.50 mM NaCl, pH 7.4) that contains 15 μM Aβ42. After 5 minutes, Zn(II) (as zinc(II) sulfate, 15 μM final concentration) was added to the Aβ42 solution, and the fluorescence intensity monitored for 24-40 minutes. Fluorescence increases following the addition of Zn(II) during the aggregation period. After the aggregation period, varying concentrations (60, 15, 3.75, 0.938, 0.234, or 0 μM final concentration) of a test compound were added, and the fluorescence intensity again monitored until it plateaus, typically 20-24 min. […] Fluorescence intensities were determined at 390 nm excitation wavelength/490 nm emission wavelength with a 475 nm cutoff. […] The responses I0-If, were calculated as the difference in the final fluorescent intensity If, c at the end of the assay for each concentration as compared to the final intensity I0 determined for the sample with no added derivative. The responses were normalized to the maximum response […] which is the final fluorescent intensity of the sample containing 60 μM test compound, Normalized response=(I0-If)/(I0-[…]). The fluorescent intensities were then fit to a 4-parameter sigmoidal logistic function to determine EC50. In the presence of soluble Aβ42, zinc(II) induces aggregation within milliseconds. This aggregation is detected by an increase in bis-ANS fluorescence. Disaggregation of zinc-dependent aggregates can be detected by a decrease in the fluorescence of bis-ANS in the assay. FIG. 1 depicts the zinc(II) induced Aβ42 aggregation and the disaggregation by BC-147 of the zinc-induced aggregates, measured by bis-ANS fluorescence assay.

N#CC(=Cc1ccc2cc(-c3ccc(N4CCOCC4)cc3)oc2c1)C(=O)O [BC-169, 2-cyano-3-(2-(4-morpholinophenyl)benzofuran-6-yl)acrylic acid]
EC50 [1]: 840 nM

CCN(CC)c1ccc(-c2cc3ccc(C=C(C#N)C(=O)O)cc3o2)cc1 [BC-173, 2-cyano-3-(2-(4-(diethylamino)phenyl)benzofuran-6-yl)acrylic acid]
EC50 [1]: 210 nM

N#CC(=Cc1ccc2cc(-c3ccc(N(c4cccnc4)c4cccnc4)cc3)oc2c1)C(=O)O [BC-159, 2-cyano-3-(2-(4-(di(pyridin-3-yl)amino)phenyl)benzofuran-6-yl)acrylic acid]
EC50 [1]: 1930 nM | EC50 [2]: 5590 nM | EC50 [3]: 2220 nM

O=C(O[C@@H]1Cc2c(O)cc(O)cc2O[C@@H]1c1cc(O)c(O)c(O)c1)c1cc(O)c(O)c(O)c1 [EGCG, Epigallocatechin gallate, reference compound]
EC50 [1]: 860 nM

N#CC(=Cc1cc2ccc(N(c3ccccc3)c3ccccc3)cc2o1)C(=O)O [BC-146, 2-cyano-3-(6-(diphenylamino)benzofuran-2-yl)acrylic acid]
EC50 [1]: 520 nM | EC50 [2]: 4900 nM | EC50 [3]: 540 nM

CC(C)(C)c1ccc(N(c2ccc(-c3cc4ccc(C=C(C#N)C(=O)O)cc4o3)cc2)c2ccc(C(C)(C)C)cc2)cc1 [BC-158, 3-(2-(4-(bis(4-(tert-butyl)phenyl)amino)phenyl)benzofuran-6-yl)-2-cyanoacrylic acid]
EC50 [1]: 1730 nM | Change in bis-ANS fluorescence after addition of compound to amylin aggregates ([1]; compound at 60.0, 15.0, 3.75, 0.938 or 0.234 μM added at about 1440 min (FIG. 5)): decrease in bis-ANS fluorescence

N#CC(C#N)=Cc1ccc2cc(-c3ccc(N(c4ccccc4)c4ccccc4)cc3)oc2c1 [BC-154, 2-((2-(4-(diphenylamino)phenyl)benzofuran-6-yl)methylene)malononitrile]
EC50 [1]: 2090 nM

N#CC(=Cc1ccc2cc(-c3ccc(N(c4ccccc4)c4ccccc4)cc3)oc2c1)C(=O)O [BC-149, 2-cyano-3-(2-(4-(diphenylamino)phenyl)benzofuran-6-yl)acrylic acid]
EC50 [1]: 150 nM | EC50 [2]: 500 nM | EC50 [3]: 660 nM

NC(=O)C(=Cc1ccc2cc(-c3ccc(N(c4ccccc4)c4ccccc4)cc3)oc2c1)C(N)=O [BC-155, 2-((2-(4-(diphenylamino)phenyl)benzofuran-6-yl)methylene)malonamide]
EC50 [1]: 180 nM | EC50 [2]: 460 nM | EC50 [3]: 1090 nM

N#CC(=Cc1ccc(-c2cc3ccc(N(c4ccccc4)c4ccccc4)cc3o2)cc1)C(=O)O [BC-147, 2-cyano-3-(4-(6-(diphenylamino)benzofuran-2-yl)phenyl)acrylic acid]
EC50 [1]: 190 nM | Change in bis-ANS fluorescence after addition of compound to zinc-independent Aβ42 aggregates [2]: decrease in bis-ANS fluorescence | EC50 [2]: 11500 nM | Change in bis-ANS fluorescence after addition of compound to zinc-induced Aβ42 aggregates ([3]; 15 μM Aβ42, 15 μM Zn2+, compound at 60.0, 15.0, 3.75, 0.938 or 0.234 μM (FIG. 1)): decrease in bis-ANS fluorescence | EC50 [3]: 3760 nM

N#CC(=Cc1ccc2cc(-c3ccc(N4CCCCC4)cc3)oc2c1)C(=O)O [BC-166, 2-cyano-3-(2-(4-(piperidin-1-yl)phenyl)benzofuran-6-yl)acrylic acid]
EC50 [1]: 610 nM

N#CC(=Cc1ccc2cc(-c3ccc(N(c4ccccc4)c4ccccc4)cc3)oc2c1)C(=O)NCc1ccccn1 [BC-163, 2-cyano-3-(2-(4-(diphenylamino)phenyl)benzofuran-6-yl)-N-(pyridin-2-ylmethyl)acrylamide]
EC50 [1]: 1830 nM | EC50 [2]: 1760 nM | EC50 [3]: 2230 nM

COC(=O)C(C#N)=Cc1ccc2cc(-c3ccc(N(c4ccccc4)c4ccccc4)cc3)oc2c1 [BC-161, methyl 2-cyano-3-(2-(4-(diphenylamino)phenyl)benzofuran-6-yl)acrylate]
EC50 [1]: 2540 nM | EC50 [2]: 3220 nM | EC50 [3]: 4120 nM

CN(c1ccccc1)c1ccc(-c2cc3ccc(C=C(C#N)C(=O)O)cc3o2)cc1 [BC-175, 2-cyano-3-(2-(4-(methyl(phenyl)amino)phenyl)benzofuran-6-yl)acrylic acid]
EC50 [1]: 140 nM

N#CC(=Cc1ccc2oc(-c3ccc(N(c4ccccc4)c4ccccc4)cc3)cc2c1)C(=O)O [BC-151, 2-cyano-3-(2-(4-(diphenylamino)phenyl)benzofuran-5-yl)acrylic acid]
EC50 [1]: 460 nM | EC50 [2]: 610 nM | EC50 [3]: 4930 nM

O=C(O)CN(CCN(CC(=O)O)CC(=O)O)CC(=O)O [EDTA, reference compound]
Change in bis-ANS fluorescence after addition of compound to zinc-independent Aβ42 aggregates [2]: no effect | EC50 [3]: 46100 nM

N#CC(=Cc1ccc2cc(-c3ccc(N(c4ccccc4)c4ccccc4)cc3)oc2c1)C(N)=O [BC-152, 2-cyano-3-(2-(4-(diphenylamino)phenyl)benzofuran-6-yl)acrylamide]
EC50 [1]: 800 nM | EC50 [2]: 1110 nM | EC50 [3]: 2700 nM

COc1ccc(N(c2ccc(OC)cc2)c2ccc(-c3cc4ccc(C=C(C#N)C(=O)O)cc4o3)cc2)cc1 [BC-156, 3-(2-(4-(bis(4-methoxyphenyl)amino)phenyl)benzofuran-6-yl)-2-cyanoacrylic acid]
EC50 [1]: 310 nM | EC50 [2]: 3010 nM | EC50 [3]: 1710 nM
